{"source": "the CombiSolv-Exp solvation set (Vermeire and Green 2021)", "experiment": "solvent given as SMILES"}
{"smiles": "CCCC(C)C(C)O", "note": "(stereo not given)", "values": [{"measurement": "solvation free energy, 298 K", "setting": "in CCCCCCCC", "result": -5.31, "unit": "kcal/mol"}, {"measurement": "solvation free energy, 298 K", "setting": "in CCCCCCCCCC", "result": -5.27, "unit": "kcal/mol"}]}
{"smiles": "C=C1C2CCC(C2)C1(C)CCC=C(C)C", "note": "(stereo not given)", "values": [{"measurement": "solvation free energy, 298 K", "setting": "in O", "result": 0.35, "unit": "kcal/mol"}]}
{"smiles": "FCC(F)(F)F", "values": [{"measurement": "solvation free energy, 298 K", "setting": "in CCCCCCCC(=O)OCC(COC(=O)CCCCCCC)OC(=O)CCCCCCC", "result": -1.21, "unit": "kcal/mol"}, {"measurement": "solvation free energy, 298 K", "setting": "in CCCCCCCCC", "result": -0.76, "unit": "kcal/mol"}, {"measurement": "solvation free energy, 298 K", "setting": "in CCCCCCCCO", "result": -0.89, "unit": "kcal/mol"}, {"measurement": "solvation free energy, 298 K", "setting": "in CN1CCCC1=O", "result": -1.96, "unit": "kcal/mol"}, {"measurement": "solvation free energy, 298 K", "setting": "in CN(C)C=O", "result": -2.21, "unit": "kcal/mol"}, {"measurement": "solvation free energy, 298 K", "setting": "in O", "result": 0.56, "unit": "kcal/mol"}]}
{"smiles": "c1ccc(CCc2ccccc2)cc1", "values": [{"measurement": "solvation free energy, 298 K", "setting": "in CCCCCCCCO", "result": -8.8, "unit": "kcal/mol"}]}
{"smiles": "C1=CCC=CC1", "values": [{"measurement": "solvation free energy, 298 K", "setting": "in C1CCC2CCCCC2C1", "result": -4.4, "unit": "kcal/mol"}, {"measurement": "solvation free energy, 298 K", "setting": "in C1CCC(C2CCCCC2)CC1", "result": -4.34, "unit": "kcal/mol"}, {"measurement": "solvation free energy, 298 K", "setting": "in CCC(C)=O", "result": -4.41, "unit": "kcal/mol"}, {"measurement": "solvation free energy, 298 K", "setting": "in O", "result": -0.67, "unit": "kcal/mol"}, {"measurement": "solvation free energy, 298 K", "setting": "in c1ccc2c(c1)CCCC2", "result": -4.58, "unit": "kcal/mol"}, {"measurement": "solvation free energy, 298 K", "setting": "in c1ccc(C2CCCCC2)cc1", "result": -4.49, "unit": "kcal/mol"}]}
{"smiles": "FC(F)(F)C(F)(F)C(F)(F)C(F)(F)C(F)(F)C(F)(F)F", "values": [{"measurement": "solvation free energy, 298 K", "setting": "in CCCCCC", "result": -2.12, "unit": "kcal/mol"}, {"measurement": "solvation free energy, 298 K", "setting": "in CCCO", "result": -0.96, "unit": "kcal/mol"}]}
{"smiles": "CCCCCCCCCCCCC", "values": [{"measurement": "solvation free energy, 298 K", "setting": "in O", "result": 4.12, "unit": "kcal/mol"}]}
{"smiles": "CCCCCC=CC=O", "values": [{"measurement": "solvation free energy, 298 K", "setting": "in O", "result": -3.43, "unit": "kcal/mol"}]}
{"smiles": "CC(=O)C1CC1", "values": [{"measurement": "solvation free energy, 298 K", "setting": "in O", "result": -4.61, "unit": "kcal/mol"}]}
{"smiles": "C#CC=C", "values": [{"measurement": "solvation free energy, 298 K", "setting": "in C1COCCO1", "result": -3.21, "unit": "kcal/mol"}, {"measurement": "solvation free energy, 298 K", "setting": "in CC(C)=O", "result": -3.19, "unit": "kcal/mol"}, {"measurement": "solvation free energy, 298 K", "setting": "in CC(C)CC(C)(C)C", "result": -2.21, "unit": "kcal/mol"}, {"measurement": "solvation free energy, 298 K", "setting": "in CN(C)C=O", "result": -3.28, "unit": "kcal/mol"}, {"measurement": "solvation free energy, 298 K", "setting": "in COC(C)=O", "result": -3.19, "unit": "kcal/mol"}, {"measurement": "solvation free energy, 298 K", "setting": "in Cc1ccc(C)cc1", "result": -3.07, "unit": "kcal/mol"}, {"measurement": "solvation free energy, 298 K", "setting": "in O", "result": 0.04, "unit": "kcal/mol"}]}
{"smiles": "CCCCCCCCCCCCCCCCO", "values": [{"measurement": "solvation free energy, 298 K", "setting": "in CC(C)O", "result": -13.7, "unit": "kcal/mol"}, {"measurement": "solvation free energy, 298 K", "setting": "in CCC(C)=O", "result": -13.8, "unit": "kcal/mol"}, {"measurement": "solvation free energy, 298 K", "setting": "in CCCCCCCCC=CCCCCCCCC(=O)OCC(COC(=O)CCCCCCCC=CCCCCCCCC)OC(=O)CCCCCCCC=CCCCCCCCC", "result": -11.6, "unit": "kcal/mol"}, {"measurement": "solvation free energy, 298 K", "setting": "in CCCCCCCCCCO", "result": -13.4, "unit": "kcal/mol"}, {"measurement": "solvation free energy, 298 K", "setting": "in CCCCCCCCO", "result": -13.5, "unit": "kcal/mol"}, {"measurement": "solvation free energy, 298 K", "setting": "in CCCCCCO", "result": -13.6, "unit": "kcal/mol"}, {"measurement": "solvation free energy, 298 K", "setting": "in CCCCOCCCC", "result": -13.1, "unit": "kcal/mol"}, {"measurement": "solvation free energy, 298 K", "setting": "in CCOCC", "result": -13.5, "unit": "kcal/mol"}, {"measurement": "solvation free energy, 298 K", "setting": "in O", "result": -2.76, "unit": "kcal/mol"}]}
{"smiles": "c1ccc2c(c1)OCCOCCOCCOc1ccccc1OCCOCCOCCO2", "values": [{"measurement": "solvation free energy, 298 K", "setting": "in Cc1cccc(C)c1", "result": -27.3, "unit": "kcal/mol"}, {"measurement": "solvation free energy, 298 K", "setting": "in O", "result": -23.6, "unit": "kcal/mol"}]}
{"smiles": "COc1c(Cl)ccc(Cl)c1C(=O)O", "values": [{"measurement": "solvation free energy, 298 K", "setting": "in O", "result": -9.86, "unit": "kcal/mol"}]}
